Reference: patent US20260365653A1, “IRREVERSIBLE MUTEGFR INHIBITORS” (Bayer Aktiengesellschaft, priority 2022, published 2026)

Tests used:
[1] = background statement on approved drugs; cited from earlier work
[2] = tested on: mutations in exons 18, 19, and 21 of EGFR; settings: cited from earlier work
EGFR exon20 insertions = settings: patients with EGFR exon20 insertions; cited from earlier work
[3] = target: T1, mutEGFR (D770_N771insSVD) (Homo sapiens, UniProt P00533, DUP768-770); test: Exon20-Mutant-EGFR (D770_N771insSVD) kinase assay (TR-FRET); type: biochemical
T1 construct: GST-EGFR #3 (SVD between D770 and N771); made in house; host or cells: Sf9 insect cells (baculovirus)

[4] = target: T2, mutEGFR (D770_N771insNPG, T790) (Homo sapiens, UniProt P00533, INS770NPG/T790M); test: mutEGFR (D770_N771insNPG, T790) kinase assay; type: biochemical
T2 construct: exact insNPG construct not described; in-house EGFR proteins were N-terminal GST fusions from baculovirus/insect cells (borders R669-A1210 given only for WT, insSVD, insASV)
Description: The different EGFR proteins used in the biochemical kinase activity inhibition assays were generated inhouse by expression in insect cells using Baculo Virus system and subsequent purification as described in the following paragraphs.
The cDNAs encoding the various protein sequences from human EGFR human (P00533) were optimized for expression in eukaryotic cells and synthesized by the GeneArt Technology at Life Technologies.

BA/F3 (insSVD) cells = test: Ba/F3-EGFR-insSVD cell survival assay (Cell Titer-Glo); type: cell-based; settings: Mus musculus, BaF3, 48 h
Procedure, shortened: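 Ba/F3 cells stably expressing retroviral EGFR-insSVD or insSVD T790M, grown without IL-3 on 10 ng/ml EGF, 4000 cells/well. Compound pinned in, 48 h at 37° C. Viability by CellTiter-Glo luminescence.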

[5] = tested on: BA/F3 (EGFR D770_N771 insSVD T790M) cells; test: Ba/F3-EGFR-insSVD T790M cell survival assay (Cell Titer-Glo); type: cell-based; settings: Ba/F3 EGFR-D770-N771ins_SVD, 48 h
Procedure: Cellular Data Description (WT, insSVD, insSVD T790M) 293T cells from ATCC were transfected with pBABEpuro expression constructs for WT EGFR or EGFR-insSVD, or EGFR-insSVD T790M, and pCL-Eco packaging vector using Fugene-6 transfection reagent from Promega. Plates were incubated at 37° C. for 48 h. Retrovirus was harvested by filtering the media supernatant through a 0.45 μm filter.
Ba/F3 cells purchased from DSMZ were grown in RPMI+10% FBS+10 ng/ml IL-3 and infected with filtered retroviral supernatant at a 1:2 dilution. Polybrene was added to a concentration of 8 μg/mL, plates were spun for 90 min, and incubated for 16 h at 37° C. 2 μg/mL puromycin was added to the infected cells 24 h after infection and cells were continually grown in the presence of puromycin and 10 ng/ml IL-3. Following stably expressing Ba/F3 cell lines were generated: Ba/F3-EGFR-WT, Ba/F3-EGFR-insSVD, Ba/F3-EGFR-insSVD T790M, (Ba/F3-vector-control).
For cell survival assays, Ba/F3 cells were grown to a density of 1-2 million cells per mL, spun down and resuspended in media without IL-3, and replated at a concentration of 200,000-500,000 cells per mL. The cells ectopically expressing WT EGFR, EGFR-insSVD, or EGFR-insSVD T790M were plated with 10 ng/ml Millipore Culture grade EGF. The cells ectopically expressing pBABEpuro empty vector were plated with 10 ng/mL IL-3.
2 days later, cells were plated in 50 µL in a 384 well plate at a concentration of 4000 cells per well for cells assayed in the absence of IL-3 and 2000 cells per well for cells assayed in the presence of IL-3. 100 nL of compound was added to each well using a 100 nL pin head, and plates were incubated at 37° C. for 48 h.
Cell viability was measured by adding 20 μL of Cell Titer-Glo Luminescent Cell Viability Reagent diluted 1:3 in PBS. Plates were sealed with Perkin Elmer Top-Seal, inverted several times to mix, and immediately centrifuged at 1000 rpm for 2 min. Plates were incubated in low light conditions for 8-10 min and luminescence was measured.

EGFR T790M = settings: T790M mutant patients; cited from earlier work
[6] = tested on: classical activating EGFR mutations and brain metastasis; settings: EGFR mutant NSCLC; cited from earlier work
[7] = tested on: EGFR exon20 insertion mutations; settings: cited from earlier work
wild-type EGFR = settings: cited from earlier work
[8] = mutEGFR (D770_N771insSVD) kinase assay IC50, Table 2a, D770_N771insSVD, 2 mM ATP
[9] = mutEGFR (D770_N771insSVD) kinase assay IC50, Table 2b (from US Priority Patent Application), mutEGFR D770_N771insSVD
[10] = Table 2b (from US Priority Patent Application), mutEGFR D770_N771insNPG
[11] = Table 3a, cell survival, Cell Titer-Glo, with 10 ng/ml EGF, without IL-3
[12] = Table 3b, Ba/F3 EGFR-insSVD T790M

T1 sequence (P00533 with tags, fused parts or gaps DUP768-770): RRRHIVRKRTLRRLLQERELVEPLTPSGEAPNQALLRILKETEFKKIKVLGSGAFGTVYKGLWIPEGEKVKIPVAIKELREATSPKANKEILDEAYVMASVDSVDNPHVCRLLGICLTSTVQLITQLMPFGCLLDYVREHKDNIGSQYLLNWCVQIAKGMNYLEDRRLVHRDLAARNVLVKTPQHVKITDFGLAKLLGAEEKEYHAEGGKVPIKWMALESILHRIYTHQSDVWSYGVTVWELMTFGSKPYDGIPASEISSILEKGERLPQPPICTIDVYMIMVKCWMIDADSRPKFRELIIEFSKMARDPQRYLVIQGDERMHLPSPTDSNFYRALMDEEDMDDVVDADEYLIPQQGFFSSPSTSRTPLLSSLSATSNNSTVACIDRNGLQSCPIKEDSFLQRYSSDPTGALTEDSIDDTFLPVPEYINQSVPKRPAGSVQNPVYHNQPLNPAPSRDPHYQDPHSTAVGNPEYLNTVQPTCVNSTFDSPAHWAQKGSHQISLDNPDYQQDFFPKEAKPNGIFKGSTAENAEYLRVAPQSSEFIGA
T2 sequence (P00533 with tags, fused parts or gaps INS770NPG/T790M limits assumed): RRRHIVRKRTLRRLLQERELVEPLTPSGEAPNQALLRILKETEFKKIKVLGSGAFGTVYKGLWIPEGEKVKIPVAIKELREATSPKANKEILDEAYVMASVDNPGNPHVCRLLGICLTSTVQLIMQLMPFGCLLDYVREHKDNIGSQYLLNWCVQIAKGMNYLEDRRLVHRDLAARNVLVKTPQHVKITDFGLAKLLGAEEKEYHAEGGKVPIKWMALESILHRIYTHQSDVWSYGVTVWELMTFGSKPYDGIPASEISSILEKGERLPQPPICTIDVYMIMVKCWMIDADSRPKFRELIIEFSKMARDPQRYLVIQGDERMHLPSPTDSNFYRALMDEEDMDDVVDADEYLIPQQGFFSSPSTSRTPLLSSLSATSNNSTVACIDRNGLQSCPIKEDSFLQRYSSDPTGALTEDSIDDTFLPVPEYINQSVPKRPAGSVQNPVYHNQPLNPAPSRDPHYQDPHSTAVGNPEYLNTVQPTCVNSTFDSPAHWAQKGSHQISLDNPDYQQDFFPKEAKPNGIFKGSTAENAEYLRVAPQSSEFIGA

| Molecule | IC50 [3, 8] [nM] | IC50 [3, 9] [nM] | IC50 ([4]; Table 2a, D770_N771insNPG) [nM] | IC50 [4, 10] [nM] | IC50 (BA/F3 (insSVD) cells; [11]) [nM] | IC50 (BA/F3 (insSVD) cells; Table 3b, Ba/F3 EGFR-insSVD) [nM] | IC50 [5, 11] [nM] | IC50 [5, 12] [nM] | also measured |
| --- | --- | --- | --- | --- | --- | --- | --- | --- | --- |
| amivantamab | – | – | – | – | – | – | – | – | blood-brain-barrier permeability [1]: only limited blood-brain-barrier permeability |
| C=CC(=O)Nc1cc(Nc2ncc(C(=O)OC(C)C)c(-c3cn(C)c4ccccc34)n2)c(OC)cc1N(C)CCN(C)C [mobocertinib, reference compound] | – | – | – | – | – | – | – | – | blood-brain-barrier permeability [1]: only limited blood-brain-barrier permeability |
| C#Cc1cccc(Nc2ncnc3cc(OCCOC)c(OCCOC)cc23)c1 [erlotinib] | – | – | – | – | – | – | – | – | durability of response [2]: often not durable; efficacy in patients [2]: effective in patients; overall survival (EGFR exon20 insertions): significantly reduced; progression-free survival (EGFR exon20 insertions): significantly reduced; response rates (EGFR exon20 insertions): particular low response rates |
| COc1cc2ncnc(Nc3ccc(F)c(Cl)c3)c2cc1OCCCN1CCOCC1 [gefitinib] | – | – | – | – | – | – | – | – | durability of response [2]: often not durable; efficacy in patients [2]: effective in patients; overall survival (EGFR exon20 insertions): significantly reduced; progression-free survival (EGFR exon20 insertions): significantly reduced; response rates (EGFR exon20 insertions): particular low response rates |
| C=CC(=O)Nc1cc(Nc2nccc(-c3cn(C)c4ccccc34)n2)c(OC)cc1N(C)CCN(C)C [osimertinib] | – | – | – | – | – | – | – | – | efficacy in patients (EGFR T790M): effective in T790M mutant patients; CNS activity [6]: clearly improved CNS activity; activity on EGFR exon20 insertion mutations [7]: only limited activity |
| CN(C)C/C=C/C(=O)Nc1cc2c(Nc3ccc(F)c(Cl)c3)ncnc2cc1O[C@H]1CCOC1 [afatinib] | – | – | – | – | – | – | – | – | durability of response [2]: often not durable; efficacy in patients [2]: effective in patients; inhibition of wild-type EGFR (wild-type EGFR): potent inhibitors of wild-type EGFR; overall survival (EGFR exon20 insertions): significantly reduced; progression-free survival (EGFR exon20 insertions): significantly reduced; response rates (EGFR exon20 insertions): particular low response rates |
| C=CC(=O)N1CCn2nc(-c3cccc(OC)c3)c(-c3ccncc3)c2C1 [Example 5, 1-[2-(3-methoxyphenyl)-3-(pyridin-4-yl)-6,7-dihydropyrazolo[1,5-a]pyrazin-5(4H)-yl]prop-2-en-1-one] | 2.19 | 2.19 | 1.04 | 1.04 | 80.5 | 80.5 | 114 | 114 | – |
| C=CC(=O)N1Cc2c(-c3ccncc3)c(-c3ccc(F)cc3)nn2C(CO)C1 (racemic) [Example 203, 1-[(7RS)-2-(4-fluorophenyl)-7-(hydroxymethyl)-3-(pyridin-4-yl)-6,7-dihydropyrazolo[1,5-a]pyrazin-5(4H)-yl]prop-2-en-1-one] | 0.409 | – | 1.42 | – | 17.4 | – | 108 | – | – |

Second part, led by results:

| IC50 [3, 8] [nM] | IC50 [3, 9] [nM] | IC50 ([4]; Table 2a, D770_N771insNPG) [nM] | IC50 [4, 10] [nM] | Molecule | IC50 (BA/F3 (insSVD) cells; [11]) [nM] | IC50 (BA/F3 (insSVD) cells; Table 3b, Ba/F3 EGFR-insSVD) [nM] | IC50 [5, 11] [nM] | IC50 [5, 12] [nM] | also measured |
| --- | --- | --- | --- | --- | --- | --- | --- | --- | --- |
| 0.209 | 0.209 | 0.408 | 0.408 | C=CC(=O)N1CCn2nc(-c3ccc(F)cc3)c(-c3ccnc(NC(=O)C4CC4)c3)c2C1 [Example 7, N-{4-[2-(4-fluorophenyl)-5-(prop-2-enoyl)-4,5,6,7-tetrahydropyrazolo[1,5-a]pyrazin-3-yl]pyridin-2-yl}cyclopropanecarboxamide] | 12.4 | 12.4 | 60.1 | 60.1 | – |
| 0.406 | 0.406 | 0.867 | 0.867 | C=CS(=O)(=O)N1CCn2nc(-c3ccc(F)cc3)c(-c3ccncc3)c2C1 [Example 14, 5-(ethenesulfonyl)-2-(4-fluorophenyl)-3-(pyridin-4-yl)-4,5,6,7-tetrahydropyrazolo[1,5-a]pyrazine] | 760 | 760 | 983 | 983 | – |
| 0.321 | – | 1.13 | – | C=CC(=O)N1CCn2nc(-c3ccc(Cl)c(F)c3)c(-c3ccncc3)c2C1 [Example 36, 1-[2-(4-chloro-3-fluorophenyl)-3-(pyridin-4-yl)-6,7-dihydropyrazolo[1,5-a]pyrazin-5(4H)-yl]prop-2-en-1-one] | 17.9 | – | 126 | – | – |
| < 0.0725 | – | 0.0916 | – | C=CC(=O)N1CCn2nc(-c3ccc4sccc4c3)c(-c3ccncc3)c2C1 [Example 192, 1-[2-(1-benzothiophen-5-yl)-3-(pyridin-4-yl)-6,7-dihydropyrazolo[1,5-a]pyrazin-5(4H)-yl]prop-2-en-1-one] | 148 | – | 39.7 | – | – |
| 0.139 | 0.139 | 0.324 | 0.324 | C=CC(=O)N1CCn2nc(-c3ccc(Cl)cc3)c(-c3ccncc3)c2C1 [Example 3, 1-[2-(4-chlorophenyl)-3-(pyridin-4-yl)-6,7-dihydropyrazolo[1,5-a]pyrazin-5(4H)-yl]prop-2-en-1-one] | 13.2 | 13.2 | 108 | 108 | – |
